The record followed here is the OligoGym collection.

Several values for one entry are separate records, joined by “and”; a condition that tells them apart may be missing. Equal entries are not always repeated. After the bases stand the sugars from the 5' end (letter, count) and the backbone: PS all phosphorothioate, else s phosphorothioate and o phosphodiester by linkage. Methylation of C is not given here. e = 2'-O-(2-methoxyethyl) (MOE); k = constrained ethyl (cEt); d = 2'-deoxy (DNA)

In this data set the target is IRF4. Particulars: ASO.

For the sequence “CAGTTGTAAATGAGTC (sugars kddddddddddkekek, PS)”, the target mRNA inhibition is 16% (H929, 0.00067 µM); 25% (H929, 0.002 µM); 52% (H929, 0.00667 µM); 68% (H929, 0.02 µM); 38% (H929, 0.04 µM); 77% and 89% (KMS11, 0.2 µM). In addition, the target mRNA inhibition amounted to 18% (MM.1R, 0.074 µM); 44% (MM.1R, 0.222 µM); 63% (MM.1R, 0.666 µM); 65% (MM.1R, 1 µM); 85% (MM.1R, 2 µM).

On to “CAGTTGTAAATGAGTC (sugars kkdddddddddekeke, PS)”, for which the target mRNA inhibition (H929, 0.00067 µM) is 1%; the target mRNA inhibition (H929, 0.002 µM) turned out to be 27%; the target mRNA inhibition (H929, 0.00667 µM) came out at 45%; the target mRNA inhibition (H929, 0.02 µM) was found to be 60%; the target mRNA inhibition (H929, 0.04 µM) was determined as 34%; the target mRNA inhibition (KMS11, 0.2 µM) is 83% and 90%. The target mRNA inhibition runs as follows: (MM.1R, 0.074 µM) 12%; (MM.1R, 0.222 µM) 39%; (MM.1R, 0.666 µM) 65%; (MM.1R, 1 µM) 72%; (MM.1R, 2 µM) 88%.

Take “CAGTTGTAAATGAGTC (sugars kkdddddddddkdkdk, PS)”: the target mRNA inhibition (MM.1R, 1 µM) was 46%.

As to “CAGTTGTAAATGAGTC (sugars kkdddddddddkekek, PS)”, the target mRNA inhibition by setting is: (H929, 0.00067 µM) 22%; (H929, 0.002 µM) 41%; (H929, 0.00667 µM) 67%; (H929, 0.02 µM) 74%; (H929, 0.04 µM) 40%; (KMS11, 0.2 µM) 83% and 93%. The target mRNA inhibition by setting is: (MM.1R, 0.074 µM) 28%; (MM.1R, 0.222 µM) 55%; (MM.1R, 0.666 µM) 78%; (MM.1R, 1 µM) 81%; (MM.1R, 2 µM) 91%.

As to CATAAAAGGTTCCTGT (sugars k3 d10 k3, PS), under “SK-MEL-28, 4 µM”, the target mRNA inhibition stood at 9%.

Consider CATAATCCAGTATCTG (sugars k3 d10 k3, PS), for which the target mRNA inhibition (SK-MEL-28, 4 µM) came to 18%.

On to CATAGAGCCAGAGCAG (sugars k3 d10 k3, PS), for which the target mRNA inhibition (SK-MEL-28, 4 µM) was 60%.

In the case of CATAGCATTATCTACC (sugars k3 d10 k3, PS), under “SK-MEL-28, 4 µM”, the target mRNA inhibition was 43%.

For the sequence CATATACATTGAGGCA (sugars k3 d10 k3, PS), the target mRNA inhibition (MM.1R, 1 µM) is 20%.

As to CATCAATCATGATATT (sugars k3 d10 k3, PS), under “SK-MEL-28, 4 µM”, the target mRNA inhibition amounted to 25%.

On to CATCACCGAACACACC (sugars k3 d10 k3, PS), for which, under “SK-MEL-28, 4 µM”, the target mRNA inhibition came to 24%.

Consider CATCAGAAATCACGAG (sugars k3 d10 k3, PS), for which the target mRNA inhibition (SK-MEL-28, 4 µM) was 55%.

Consider CATCCTGCTTCCAGTG (sugars k3 d10 k3, PS), for which the target mRNA inhibition (SK-MEL-28, 4 µM) was determined as 30%.

In the case of CATCTAATCCACAATC (sugars k3 d10 k3, PS), the target mRNA inhibition (MM.1R, 1 µM) is -19%.

As for CATGATAAGGCACTAC (sugars k3 d10 k3, PS), the target mRNA inhibition (MM.1R, 1 µM) was -6%.

For CATGATATTAGAGACT (sugars k3 d10 k3, PS), the target mRNA inhibition (SK-MEL-28, 4 µM) worked out at 56%.

As to CATTCACACTGCCGTG (sugars k3 d10 k3, PS), the target mRNA inhibition (MM.1R, 1 µM) came out at 6%.

Consider CATTGAGGCATACAGT (sugars k3 d10 k3, PS), for which, for the setting “SK-MEL-28, 4 µM”, the target mRNA inhibition was 55%.

For CATTGGACCCACGAAG (sugars k3 d10 k3, PS), for the setting “SK-MEL-28, 4 µM”, the target mRNA inhibition turned out to be 28%.

Regarding CATTGGAGGAGGGTTG (sugars k3 d10 k3, PS), for the setting “SK-MEL-28, 4 µM”, the target mRNA inhibition was -2%.

For CATTTCATTTAATGTC (sugars k3 d10 k3, PS), the target mRNA inhibition (SK-MEL-28, 4 µM) stood at 33%.

As for CCAAAGTTACATCCTA (sugars k3 d10 k3, PS), the target mRNA inhibition (SK-MEL-28, 4 µM) was determined as 39%.

For CCAACTTAAAATCCAC (sugars k3 d10 k3, PS), the target mRNA inhibition (SK-MEL-28, 4 µM) amounted to 9%.

Consider CCAACTTATAGCACTC (sugars k3 d10 k3, PS), for which the target mRNA inhibition (MM.1R, 1 µM) was determined as 14%.

CCAAGAGGTGCGAGTA (sugars k3 d10 k3, PS): the target mRNA inhibition (SK-MEL-28, 4 µM) turned out to be 33%.

For CCAAGCCTAGAGGTGC (sugars k3 d10 k3, PS), the target mRNA inhibition (MM.1R, 1 µM) turned out to be 21%.

For the sequence CCAATTTATGCCATGG (sugars k3 d10 k3, PS), the target mRNA inhibition (SK-MEL-28, 4 µM) is 12%.

As to CCACACCAGGAAACCG (sugars k3 d10 k3, PS), where the note is “SK-MEL-28, 4 µM”, the target mRNA inhibition is 14%.

On to CCACAGAGGACTTCGG (sugars k3 d10 k3, PS), for which the target mRNA inhibition (SK-MEL-28, 4 µM) was found to be 27%.

As to CCACAGTGAAGTCGGG (sugars k3 d10 k3, PS), the target mRNA inhibition (MM.1R, 1 µM) is 6%.

As for CCACGAAGGGCAGTGC (sugars k3 d10 k3, PS), the target mRNA inhibition (MM.1R, 1 µM) stood at 0%.

For CCACGAGGCCCCGGAG (sugars k3 d10 k3, PS), the target mRNA inhibition (MM.1R, 1 µM) turned out to be 4%.

Consider CCACGCGCGGAGGACC (sugars k3 d10 k3, PS), for which, for the setting “SK-MEL-28, 4 µM”, the target mRNA inhibition was 19%.

Regarding CCACGGACGGAGGCGG (sugars k3 d10 k3, PS), where the note is “MM.1R, 1 µM”, the target mRNA inhibition was -6%.

For the sequence CCACTGTTAAAGCAGC (sugars k3 d10 k3, PS), under “SK-MEL-28, 4 µM”, the target mRNA inhibition was determined as 66%.

Take CCAGAACTAATGTCCC (sugars k3 d10 k3, PS): the target mRNA inhibition (MM.1R, 1 µM) turned out to be 6%.

As for CCAGAAGTACGAGCAC (sugars k3 d10 k3, PS), where the note is “MM.1R, 1 µM”, the target mRNA inhibition was -3%.

In the case of CCAGGATTCGCCATGG (sugars k3 d10 k3, PS), for the setting “MM.1R, 1 µM”, the target mRNA inhibition worked out at 13%.

With CCATATTGGAAACCAG (sugars k3 d10 k3, PS), the target mRNA inhibition (MM.1R, 1 µM) came to 10%.

CCCAAATGACTTAGTC (sugars k3 d10 k3, PS): where the note is “SK-MEL-28, 4 µM”, the target mRNA inhibition came out at 32%.

With CCCAAGTGAGGTCACC (sugars k3 d10 k3, PS), the target mRNA inhibition (SK-MEL-28, 4 µM) came out at 20%.

With CCCAATACATATCCAT (sugars k3 d10 k3, PS), the target mRNA inhibition (SK-MEL-28, 4 µM) amounted to 74%.

With CCCAATAGTCTAGCTG (sugars k3 d10 k3, PS), the target mRNA inhibition (SK-MEL-28, 4 µM) worked out at 56%.

With CCCACACCAGCCCGGG (sugars k3 d10 k3, PS), the target mRNA inhibition (SK-MEL-28, 4 µM) was -6%.

Consider CCCACGCGGGAGGCTC (sugars k3 d10 k3, PS), for which the target mRNA inhibition (MM.1R, 1 µM) was -23%.

On to CCCATGAACACCATGC (sugars k3 d10 k3, PS), for which the target mRNA inhibition (SK-MEL-28, 4 µM) stood at 32%.

On to CCCATTTAATCTGTCT (sugars k3 d10 k3, PS), for which the target mRNA inhibition (SK-MEL-28, 4 µM) was found to be 33%.

Regarding CCCCAGCTATGCTCTA (sugars k3 d10 k3, PS), the target mRNA inhibition (MM.1R, 1 µM) was -30%.

On to CCCCATATACATTGAG (sugars k3 d10 k3, PS), for which, under “SK-MEL-28, 4 µM”, the target mRNA inhibition turned out to be 37%.

On to CCCCATTGCCTGTTAA (sugars k3 d10 k3, PS), for which the target mRNA inhibition (SK-MEL-28, 4 µM) is 20%.

For CCCCTCTCCAGGTGGC (sugars k3 d10 k3, PS), the target mRNA inhibition (SK-MEL-28, 4 µM) was found to be 13%.

In the case of CCCCTCTCCAGGTGGC (sugars k4 d8 k4, PS), for the setting “SK-MEL-28, 4 µM”, the target mRNA inhibition is -1%.

In the case of CCCTACTGGGTACATG (sugars k3 d10 k3, PS), the target mRNA inhibition (SK-MEL-28, 4 µM) is 37%.

With CCCTTAGGATAATATA (sugars k3 d10 k3, PS), the target mRNA inhibition (SK-MEL-28, 4 µM) came out at 49%.

For the sequence CCCTTCCCGCTCCGAA (sugars k3 d10 k3, PS), the target mRNA inhibition (SK-MEL-28, 4 µM) came to 16%.
